From ChEMBL document CHEMBL4346715, “Antibacterial activity study of 1,2,4-triazole derivatives” (Eur J Med Chem, 2019)
Values after ≈ are worked out from the molar mass of the structure shown.

What was measured:
Listeria monocytogenes = experiment: Antibacterial activity against Listeria monocytogenes ATCC 35152 after 24 hrs by broth microdilution method; format: functional; details: ATCC 35152, 24 h
Staphylococcus aureus [1] = experiment: Antibacterial activity against Staphylococcus aureus ATCC 49444 after 24 hrs by broth microdilution method; format: functional; details: ATCC 49444, 24 h
Pseudomonas aeruginosa [2] = experiment: Antibacterial activity against Pseudomonas aeruginosa ATCC 27853 after 24 hrs by broth microdilution method; format: functional; details: ATCC 27853, 24 h
Salmonella typhimurium = experiment: Antibacterial activity against Salmonella typhimurium ATCC 14028 after 24 hrs by broth microdilution method; format: functional, Salmonella enterica subsp. enterica serovar Typhimurium; details: Salmonella enterica, ATCC 14028, 24 h
Escherichia coli [3] = experiment: Antibacterial activity against Escherichia coli after 24 hrs by broth microdilution method; format: functional
Escherichia coli [4] = experiment: Antibacterial activity against Escherichia coli; format: functional
Staphylococcus aureus [5] = experiment: Antibacterial activity against Staphylococcus aureus; format: functional
Bacillus subtilis = experiment: Antibacterial activity against Bacillus subtilis; format: functional
Candida albicans = experiment: Antifungal activity against Candida albicans; format: functional
Aspergillus niger = experiment: Antifungal activity against Aspergillus niger; format: functional
Pseudomonas aeruginosa [6] = experiment: Antibacterial activity against Pseudomonas aeruginosa; format: functional
Streptococcus pneumoniae = experiment: Antibacterial activity against Streptococcus pneumoniae; format: functional
Clostridium tetani = experiment: Antibacterial activity against Clostridium tetani; format: functional
Escherichia coli [7] = experiment: Antibacterial activity against Escherichia coli incubated for 18 hrs post 30 mins pre-diffusion by disk diffusion method; format: functional
Staphylococcus aureus [8] = experiment: Antibacterial activity against Staphylococcus aureus incubated for 18 hrs post 30 mins pre-diffusion by disk diffusion method; format: functional

| Compound | MIC (Escherichia coli [4]) [µg/mL] | MIC (Staphylococcus aureus [5]) [µg/mL] | MIC (Bacillus subtilis) [µg/mL] | MIC (Candida albicans) [µg/mL] | MIC (Aspergillus niger) [µg/mL] | MIC (Escherichia coli [7]) [µg/mL] | MIC (Staphylococcus aureus [8]) [µg/mL] | further results |
| --- | --- | --- | --- | --- | --- | --- | --- | --- |
| Cc1nc(-c2ccccc2)sc1-c1nnc(S)n1/N=C/c1ccc(F)cc1 |  |  |  |  |  |  |  | MIC (Listeria monocytogenes): 1.95 to 62.5 µg/mL (≈ 4.93 to 158 µM); MIC (Staphylococcus aureus [1]): 1.95 to 62.5 µg/mL (≈ 4.93 to 158 µM); MIC (Pseudomonas aeruginosa [2]): 1.95 to 62.5 µg/mL (≈ 4.93 to 158 µM); MIC (Salmonella typhimurium): 1.95 to 62.5 µg/mL (≈ 4.93 to 158 µM); MIC (Escherichia coli [3]): 1.95 to 62.5 µg/mL (≈ 4.93 to 158 µM) |
| C/C=N/n1c(S)nnc1-c1ccncc1 | 10.2 to 162 (≈ 46.5 to 741 µM) | 10.2 to 162 (≈ 46.5 to 741 µM) | 10.2 to 162 (≈ 46.5 to 741 µM) | 10.2 to 162 (≈ 46.5 to 741 µM) | 10.2 to 162 (≈ 46.5 to 741 µM) |  |  | MIC (Pseudomonas aeruginosa [6]): 10.2 to 162 µg/mL (≈ 46.5 to 741 µM) |
| Cc1nn(-c2ccccc2)c(-n2cncn2)c1-c1cc(-c2ccc(O)cc2)nc2nc3ccccc3n12 | 62.5 to 250 (≈ 129 to 516 µM) | 62.5 to 250 (≈ 129 to 516 µM) | 62.5 to 250 (≈ 129 to 516 µM) |  |  |  |  | MIC (Streptococcus pneumoniae): 62.5 to 250 µg/mL (≈ 129 to 516 µM); MIC (Clostridium tetani): 62.5 to 250 µg/mL (≈ 129 to 516 µM) |
| Cc1nc(-c2ccccc2)sc1-c1nnc(S)n1/N=C/c1cccc(Cl)c1Cl |  |  |  |  |  |  |  | MIC (Listeria monocytogenes): 1.95 to 62.5 µg/mL (≈ 4.37 to 140 µM); MIC (Staphylococcus aureus [1]): 1.95 to 62.5 µg/mL (≈ 4.37 to 140 µM); MIC (Pseudomonas aeruginosa [2]): 1.95 to 62.5 µg/mL (≈ 4.37 to 140 µM); MIC (Salmonella typhimurium): 1.95 to 62.5 µg/mL (≈ 4.37 to 140 µM); MIC (Escherichia coli [3]): 1.95 to 62.5 µg/mL (≈ 4.37 to 140 µM) |
| Cc1nc(-c2ccccc2)sc1-c1nnc(S)n1/N=C/c1ccc(O)cc1 |  |  |  |  |  |  |  | MIC (Listeria monocytogenes): 1.95 to 62.5 µg/mL (≈ 4.96 to 159 µM); MIC (Staphylococcus aureus [1]): 1.95 to 62.5 µg/mL (≈ 4.96 to 159 µM); MIC (Pseudomonas aeruginosa [2]): 1.95 to 62.5 µg/mL (≈ 4.96 to 159 µM); MIC (Salmonella typhimurium): 1.95 to 62.5 µg/mL (≈ 4.96 to 159 µM); MIC (Escherichia coli [3]): 1.95 to 62.5 µg/mL (≈ 4.96 to 159 µM) |
| CSc1nccc(Sc2nnc(-c3cc(C)cc(C)c3)[nH]2)n1 |  |  |  |  |  | 1.6 to 250 (≈ 4.86 to 759 µM) | 1.6 to 250 (≈ 4.86 to 759 µM) |  |
| Cc1ccc(-c2cc(-c3c(C)nn(-c4ccccc4)c3-n3cncn3)n3c(n2)nc2ccccc23)cc1 | 62.5 to 250 (≈ 130 to 518 µM) | 62.5 to 250 (≈ 130 to 518 µM) | 62.5 to 250 (≈ 130 to 518 µM) |  |  |  |  | MIC (Streptococcus pneumoniae): 62.5 to 250 µg/mL (≈ 130 to 518 µM); MIC (Clostridium tetani): 62.5 to 250 µg/mL (≈ 130 to 518 µM) |
| FC(F)(F)c1ccc(-c2nnc(Sc3cc(Cl)nc(Sc4ccccc4)n3)[nH]2)cc1 |  |  |  |  |  | 1.6 to 250 (≈ 3.43 to 537 µM) | 1.6 to 250 (≈ 3.43 to 537 µM) |  |
| Sc1nnc(-c2ccncc2)n1/N=C/c1ccc(Cl)cc1 | 10.2 to 162 (≈ 32.3 to 515 µM) | 10.2 to 162 (≈ 32.3 to 515 µM) | 10.2 to 162 (≈ 32.3 to 515 µM) | 10.2 to 162 (≈ 32.3 to 515 µM) | 10.2 to 162 (≈ 32.3 to 515 µM) |  |  | MIC (Pseudomonas aeruginosa [6]): 10.2 to 162 µg/mL (≈ 32.3 to 515 µM) |
| C=CC/C=N/n1c(S)nnc1-c1ccncc1 | 10.2 to 162 (≈ 41.6 to 662 µM) | 10.2 to 162 (≈ 41.6 to 662 µM) | 10.2 to 162 (≈ 41.6 to 662 µM) | 10.2 to 162 (≈ 41.6 to 662 µM) | 10.2 to 162 (≈ 41.6 to 662 µM) |  |  | MIC (Pseudomonas aeruginosa [6]): 10.2 to 162 µg/mL (≈ 41.6 to 662 µM) |
| OCCCCSc1nc(Cl)cc(Sc2nnc(-c3cc(C(F)(F)F)cc(C(F)(F)F)c3)[nH]2)n1 |  |  |  |  |  | 1.6 to 250 (≈ 3.02 to 472 µM) | 1.6 to 250 (≈ 3.02 to 472 µM) |  |
| Cc1nc(-c2ccccc2)sc1-c1nnc(S)n1/N=C/c1ccccc1O |  |  |  |  |  |  |  | MIC (Listeria monocytogenes): 1.95 to 62.5 µg/mL (≈ 4.96 to 159 µM); MIC (Staphylococcus aureus [1]): 1.95 to 62.5 µg/mL (≈ 4.96 to 159 µM); MIC (Pseudomonas aeruginosa [2]): 1.95 to 62.5 µg/mL (≈ 4.96 to 159 µM); MIC (Salmonella typhimurium): 1.95 to 62.5 µg/mL (≈ 4.96 to 159 µM); MIC (Escherichia coli [3]): 1.95 to 62.5 µg/mL (≈ 4.96 to 159 µM) |
| COc1cc(-c2nnc(Sc3cc(Cl)nc(Sc4ccccc4)n3)[nH]2)ccc1O |  |  |  |  |  | 1.6 to 250 (≈ 3.6 to 563 µM) | 1.6 to 250 (≈ 3.6 to 563 µM) |  |
| CCCCCSc1nc(Cl)cc(Sc2nnc(-c3cc(C(F)(F)F)cc(C(F)(F)F)c3)[nH]2)n1 |  |  |  |  |  | 1.6 to 250 (≈ 3.03 to 474 µM) | 1.6 to 250 (≈ 3.03 to 474 µM) |  |
| Cc1cc(C)cc(-c2nnc(Sc3cc(Cl)ncn3)[nH]2)c1 |  |  |  |  |  | 1.6 to 250 (≈ 5.03 to 787 µM) | 1.6 to 250 (≈ 5.03 to 787 µM) |  |
| CSc1nc(Cl)cc(Sc2nnc(-c3cc(C)cc(C)c3)[nH]2)n1 |  |  |  |  |  | 1.6 to 250 (≈ 4.4 to 687 µM) | 1.6 to 250 (≈ 4.4 to 687 µM) |  |
| FC(F)(F)c1cc(-c2nnc(Sc3cc(Cl)nc(Oc4ccccc4)n3)[nH]2)cc(C(F)(F)F)c1 |  |  |  |  |  | 1.6 to 250 (≈ 3.09 to 483 µM) | 1.6 to 250 (≈ 3.09 to 483 µM) |  |
| Fc1cccc(-c2nnc(Sc3cc(Cl)nc(Sc4ccccc4)n3)[nH]2)c1 |  |  |  |  |  | 1.6 to 250 (≈ 3.85 to 601 µM) | 1.6 to 250 (≈ 3.85 to 601 µM) |  |
| Cc1nn(-c2ccccc2)c(-n2cncn2)c1-c1cc(-c2ccccc2)nc2nc3ccccc3n12 | 62.5 to 250 (≈ 133 to 534 µM) | 62.5 to 250 (≈ 133 to 534 µM) | 62.5 to 250 (≈ 133 to 534 µM) |  |  |  |  | MIC (Streptococcus pneumoniae): 62.5 to 250 µg/mL (≈ 133 to 534 µM); MIC (Clostridium tetani): 62.5 to 250 µg/mL (≈ 133 to 534 µM) |
| CC/C=N/n1c(S)nnc1-c1ccncc1 | 10.2 to 162 (≈ 43.7 to 697 µM) | 10.2 to 162 (≈ 43.7 to 697 µM) | 10.2 to 162 (≈ 43.7 to 697 µM) | 10.2 to 162 (≈ 43.7 to 697 µM) | 10.2 to 162 (≈ 43.7 to 697 µM) |  |  | MIC (Pseudomonas aeruginosa [6]): 10.2 to 162 µg/mL (≈ 43.7 to 697 µM) |
| FC(F)(F)c1cc(-c2nnc(Sc3cc(Cl)ncn3)[nH]2)cc(C(F)(F)F)c1 |  |  |  |  |  | 1.6 to 250 (≈ 3.76 to 587 µM) | 1.6 to 250 (≈ 3.76 to 587 µM) |  |
| Brc1ccccc1-c1nnc2sc(-c3ccccc3)nn12 |  |  |  | 3.12 (≈ 8.75 µM) | 6.25 (≈ 17.5 µM) |  |  |  |
| NYSTATIN | 100 to 500 | 100 to 500 | 100 to 500 |  |  |  |  | MIC (Streptococcus pneumoniae): 100 to 500 µg/mL; MIC (Clostridium tetani): 100 to 500 µg/mL |
| Fc1ccc(/C=N/n2c(-c3ccncc3)n[nH]c2=S)cc1 | 10.2 to 162 (≈ 34.1 to 543 µM) | 10.2 (≈ 34.1 µM) | 10.2 to 162 (≈ 34.1 to 543 µM) | 10.2 to 162 (≈ 34.1 to 543 µM) | 10.2 to 162 (≈ 34.1 to 543 µM) |  |  | MIC (Pseudomonas aeruginosa [6]): 12.5 µg/mL (≈ 41.8 µM) |
| Sc1nnc(-c2ccncc2)n1/N=C/c1ccccc1 | 10.2 to 162 (≈ 36.3 to 578 µM) | 14.1 to 17.2 (≈ 50.1 to 61.1 µM) | 10.2 to 162 (≈ 36.3 to 578 µM) | 10.2 to 162 (≈ 36.3 to 578 µM) | 10.2 to 162 (≈ 36.3 to 578 µM) |  |  | MIC (Pseudomonas aeruginosa [6]): 14.1 to 17.2 µg/mL (≈ 50.1 to 61.1 µM) |
| Cc1ccc(/C=N/n2c(S)nnc2-c2ccncc2)cc1 | 10.2 to 162 (≈ 34.5 to 550 µM) | 10.2 to 162 (≈ 34.5 to 550 µM) | 10.2 to 162 (≈ 34.5 to 550 µM) | 10.2 to 162 (≈ 34.5 to 550 µM) | 10.2 to 162 (≈ 34.5 to 550 µM) |  |  | MIC (Pseudomonas aeruginosa [6]): 10.2 to 162 µg/mL (≈ 34.5 to 550 µM) |
